Source: patent US20240051975A1 (TSINGHUA UNIVERSITY, priority 2020, published 2024)

Tests used:
NAMPT [1] = target: T1, NAMPT (Homo sapiens, UniProt P43490); assay: NAMPT enzyme activity assay coupled with NMNAT1 and ADH (NADH fluorescence); conditions: for Relative activation of NAMPT activity: AUC of dose-response curve (0.1, 0.3, 1, 3, 10 μM) relative to AUC of NAT (NAT = 1), 1 μM NAMPT, 200 μM NAM
Method: The NAMPT enzyme activity was assayed by a method coupled with the three enzymes: NAMPT, NMNAT1 and alcohol dehydrogenase (ADH). NAMPT synthesizes NMN from NAM and PRPP, NMNAT1 synthesizes NAD from NMN produced in the first step, and ADH converts NAD into detectable fluorescent NADH. […] The reaction was initiated by adding 200 μM nicotinamide (NAM) and mixing gently. The enzyme activity of NAMPT was expressed as the concentration of NADH generated per minute (the molar value was equal to NAD). The relative enzyme activity of NAMPT in each compound-treated group was normalized by the value of the DMSO-treated group, and a dose-response curve was drawn to evaluate the effect of individual compounds on NAMPT enzyme activity. The area under the dose-response curve (AUC, area under curve) was then calculated for individual compound and compared to the AUC of NAT, so that the obtained relative value quantitative Eauc represented the enzyme activation activity of each compound, and the specific calculation formula was shown in FIG. 3.

NAMPT [2] = target: T1, NAMPT; assay: Isothermal calorimetric titration (ITC) binding to NAMPT
Excerpt: We verified the direct binding between in vitro expressed and purified NAMPT and NAT by isothermal calorimetric titration (ITC). […] The final data were fitted using a single-point model.

[3] = test system: cell death induced by the NAMPT inhibitor FK866; assay: Protection against cell death induced by the NAMPT inhibitor FK866 (Celltiter-Glo, cellular ATP); type: cell-based; conditions: AUC of dose-response curve (0.1-10 μM) relative to AUC of NAT; 10 nM FK866, 72 hours, cell viability by ATP
Method: In the latter cell-based assay, we determined the degree of protection of NAT and derivatives thereof against the NAMPT inhibitor FK866. […] After 72 hours, Celltiter-Glo (Promega) was used to detect cellular ATP levels to reflect cell viability and normalized to the DMSO group. A dose-response curve was drawn to evaluate the cytoprotective activity of individual compounds against FK866. Then the area under the dose-response curve (AUC, area under curve) of each compound was calculated and compared with the AUC of NAT, so that the obtained relative value quantitatively expressed the cytoprotective activity of each compound.

T1 sequence (P43490 whole entry, species assumed): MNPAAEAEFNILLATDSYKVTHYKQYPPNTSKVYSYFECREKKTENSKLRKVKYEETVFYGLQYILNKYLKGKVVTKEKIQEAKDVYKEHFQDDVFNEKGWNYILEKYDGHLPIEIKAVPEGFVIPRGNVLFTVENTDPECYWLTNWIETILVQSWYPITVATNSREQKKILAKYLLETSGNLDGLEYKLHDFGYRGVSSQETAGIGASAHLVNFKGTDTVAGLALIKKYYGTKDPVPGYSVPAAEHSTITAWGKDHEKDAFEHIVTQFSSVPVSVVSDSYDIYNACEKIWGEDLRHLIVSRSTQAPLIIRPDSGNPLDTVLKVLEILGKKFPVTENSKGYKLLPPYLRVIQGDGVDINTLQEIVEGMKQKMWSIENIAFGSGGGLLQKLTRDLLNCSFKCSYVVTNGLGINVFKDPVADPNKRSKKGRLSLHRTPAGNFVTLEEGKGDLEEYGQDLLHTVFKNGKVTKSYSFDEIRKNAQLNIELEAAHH

Row | Compound | NAMPT activation activity (in words) (NAMPT [1]) | Relative activation of NAMPT activity (NAMPT [1]) | binding to NAMPT (in words) (NAMPT [2]) | Relative cytoprotective activity [3]
1 | CC(C)(C)c1ccccc1OCC(=O)Nc1ccccc1 [Compound 2, 2-(2-(tert-butyl)phenoxy)-N-phenylacetamide] | cannot activate NAMPT | −0.2247 | cannot bind NAMPT | 0.02446
2 | CC(C)(C)c1cccc(CNC(=O)Nc2ccc(O)cc2)c1 [Compound 20, 1-(3-tert-butyl)benzyl-3-(4-hydroxyl)phenylurea] | – | −0.1622 | – | 0.135
3 | CC(C)(C)c1cccc(OCC(=O)NCc2ccc(O)cc2)c1 [Compound 22, 2-(3-(tert-butyl)phenoxy)-N-(4-hydroxybenzyl)acetamide] | – | −0.2162 | – | 0.1187
4 | O=C(COc1ccccc1C(F)(F)F)Nc1ccc(O)cc1 [Compound 23, N-(4-hydroxyphenyl)-2-(2-(trifluoromethyl)phenoxy)acetamide] | – | 0.2389 | – | 0.2337
5 | CC(C)c1ccccc1OCC(=O)Nc1ccc(O)cc1 [Compound 24, N-(4-hydroxyphenyl)-2-(2-isopropylphenoxy)acetamide] | – | 1.35 | – | 0.5447
6 | CC(C)(C)c1ccccc1OCC(=O)Nc1ccc(O)cc1Cl [Compound 36, 2-(2-(tert-butyl)phenoxy)-N-(2-chloro-4-hydroxyphenyl)acetamide] | – | 0.2583 | – | 0.06922
7 | CC(C)(C)c1ccccc1OCC(=O)Nc1ccc(O)cc1F [Compound 40, 2-(2-(tert-butyl)phenoxy)-N-(2-fluoro-4-hydroxyphenyl)acetamide] | – | 0.03898 | – | 0.1859
8 | CC(C)(C)c1ccccc1OCC(=O)Nc1ccc(O)c(F)c1 [Compound 41, 2-(2-(tert-butyl)phenoxy)-N-(3-fluoro-4-hydroxyphenyl)acetamide] | – | 0.1348 | – | 0.9588
9 | COc1ccc(OCC(=O)Nc2ccc(O)cc2)c(C(C)(C)C)c1 [Compound 51] | – | 1.382 | – | 1.402
10 | CC(C)(C)c1cc(O)ccc1OCC(=O)Nc1ccc(O)cc1 [Compound 52] | – | 1.488 | – | 1.358
11 | Cc1cccc(C(C)(C)C)c1OCC(=O)Nc1ccc(O)cc1 [Compound 53, 2-(2-(tert-butyl)-6-methylphenoxy)-N-(4-hydroxyphenyl)acetamide] | – | 0.327 | – | 0.571
12 | Cc1ccc(C(C)(C)C)c(OCC(=O)Nc2ccc(O)cc2)c1 [Compound 55, 2-(2-(tert-butyl)-5-methylphenoxy)-N-(4-hydroxyphenyl)acetamide] | – | 0.1726 | – | 0.6623
13 | CC(C)(C)c1cc(Cl)ccc1OCC(=O)Nc1ccc(O)cc1 [Compound 57, 2-(2-(tert-butyl)-4-chlorophenoxy)-N-(4-hydroxyphenyl)acetamide] | – | 0.3183 | – | 1.099
14 | CC(C)(C)c1cccc(CO)c1OCC(=O)Nc1ccc(O)cc1 [Compound 58, 2-(2-(tert-butyl)-6-(hydroxymethyl)phenoxy)-N-(4-hydroxyphenyl)acetamide] | – | 0.5159 | – | 0.8071
15 | CC(C)(C)c1cc(Br)ccc1OCC(=O)Nc1ccc(O)cc1 [Compound 61, 2-(4-bromo-2-(tert-butyl)phenoxy)-N-(4-hydroxyphenyl)acetamide] | – | 0.4032 | – | 1.285
16 | COC(=O)c1ccc(C(C)(C)C)c(OCC(=O)Nc2ccc(O)cc2)c1 [Compound 62, 4-(tert-butyl)-3-(24(4-hydroxyphenyl)amino)-2-oxoethoxy)methyl benzoate] | – | 0.5464 | – | 0.7359
17 | CC(C)(C)c1ccc(C(N)=O)cc1OCC(=O)Nc1ccc(O)cc1 [Compound 63] | – | 2.041 | – | 1.065
18 | CC(C)(C)c1ccc(C(=O)O)cc1OCC(=O)Nc1ccc(O)cc1 [Compound 64] | – | −0.0799 | – | 0.2131
19 | COC(=O)c1cccc(C(C)(C)C)c1OCC(=O)Nc1ccc(O)cc1 [Compound 65, 3-(tert-butyl)-2-(2-((4-hydroxyphenyl)amino)-2-oxoethoxy)methyl benzoate] | – | 0.00292 | – | 0.1431
20 | CC(C)(C)c1cc(C#N)ccc1OCC(=O)Nc1ccc(O)cc1 [Compound 66, 2-(2-(tert-butyl)-4-cyanophenoxy)-N-(4-hydroxyphenyl)acetamide] | – | 1.2627 | – | 1.569
